Tested on: PE/CA-PJ49 tumor cells
Assay: Cell cycle phase distribution by PI flow cytometry, tumor cells
Type: cell-based, human
Conditions: 24 h, RSV 40 μM
Experimental: For analysis of cell-cycle distribution, the cells were collected after treatment, fixed with 70% ethanol for at least one hour at 4 °C. The cells were stained with propidium iodide (PI) an agent which intercalates into the major groove of double-stranded DNA and produces a highly fluorescent adduct that can be excited at 488 nm with a broad emission around 600 nm. Since PI can also bind to double-stranded RNA, it is necessary to treat the cells with RNase for optimal DNA resolution. Cells (1×10^6 cells/mL) were washed in PBS and centrifuge at 300× g, 5 min at 4 °C. The pellet of the cells were incubated for 10 min at 37 °C with 0.5 mg/sample RNase A and then was added 10 μg/sample of PI staining solution to cell pellet, mix well and incubated 10 min at 37 °C. The samples stored at 4 °C until analyzed by flow cytometry. A minimum of 20,000 events for each sample were collected using a FACS CantoII flow cytometer and ModFIT software (BectonDickinson) and used to determine the cell cycle phase distribution after debris exclusion.
The progression through the cell cycle phases induced by treatment were evaluated by flow cytometry using a FACSCanto II flow cytometer. Data analysis were performed using the ModFit 3.2 program which offers the possibility of evaluating the cell cycle phases distribution (G0/G1, S, G2 + M).

`Oc1ccc(C=Cc2cc(O)cc(O)c2)cc1` [RSV, 3,5,4′-trihydroxystilbene] showed a G0/G1% of 39.05% and a G2/M% of 19.41%.

Reference: PMC7551591, “The Effect of Resveratrol or Curcumin on Head and Neck Cancer Cells Sensitivity to the Cytotoxic Effects of Cisplatin” (Nutrients, 2020)
